US10966426B2, “Herbicidal compositions comprising phenylpyrimidines” (BASF SE, priority 2016, dated 2021)

Legend:
Assay type in all cases: in vivo
Echinocloa crus-galli = experiment: greenhouse pre-emergence treatment, ECHCG; settings: 20 DAT; for % activity: solo, WG 70%
In short: (§1)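 Damage rated on 0 to 100 scale (0 = normal growth, 100 = no emergence or total above-ground kill) after 2-4 weeks at species-dependent 10-25° C or 20-35° C. Seeds sown per species in loamy sand, ~3.0% humus, treated right after sowing with aqueous spray of single actives or 10% emulsion-concentrate mixtures, then hooded; additive expectation by Colby.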

Helianthus annuus [1] = experiment: greenhouse post-emergence treatment, HELAN; settings: Helianthus annuus, 480 h, 20 DAT, HELAN, metribuzin WG 70% solo 35 gai/ha
In short: (§2)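 Each species was grown separately and treated once it reached 3 to 15 cm, using actives suspended or emulsified in water. Plants were kept at 10-25° C. or 20-35° C., depending on species. Damage is a 0–100 rating taken during 2 to 4 weeks.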

Apera spica-venti [2] = experiment: greenhouse pre-emergence treatment, APESV; settings: solo, WG 70%, 20 DAT
In short: as §1

Lolium multiflorum = experiment: greenhouse post-emergence treatment, LOLMU; settings: Lolium multiflorum, 480 h, solo, WG 70%, LOLMU, 20 DAT
In short: (§3)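 Seeds sown per species in loamy sand substrate (about 3.0% humus); some raised separately and transplanted shortly before treatment. Treatments applied in water post-emergence, plants held at 10-25° C. or 20-35° C. by species, then scored after 2 to 4 weeks, where 100 means total kill and 0 no damage.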

Galium aparine = experiment: greenhouse post-emergence treatment, GALAP; settings: Galium aparine, 480 h, 20 DAT, GALAP
In short: (§4)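 Scale 0–100 damage rating (100 = complete destruction of above-ground parts, 0 = normal growth), read 2 to 4 weeks after post-emergence application of aqueous spray liquor to plants 3–15 cm tall.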

Polygonum convolvulus [3] = experiment: greenhouse post-emergence treatment, POLCO; settings: Fallopia convolvulus, 480 h, 20 DAT, POLCO
In short: as §4

Avena fatua = experiment: greenhouse post-emergence treatment, AVEFA; settings: Avena fatua, 480 h, 20 DAT, AVEFA
In short: as §3

Apera spica-venti [4] = experiment: greenhouse post-emergence treatment, APESV; settings: 20 DAT, APESV; for % activity: solo, WG 70%
In short: as §2

Papaver rhoeas = experiment: greenhouse pre-emergence treatment, PAPRH; settings: 20 DAT
In short: as §1

Helianthus annuus [5] = experiment: greenhouse pre-emergence treatment, HELAN; settings: Helianthus annuus, 480 h, 20 DAT, HELAN
In short: as §1

Bromus sterilis = experiment: greenhouse pre-emergence treatment, BROST; settings: Bromus sterilis, 480 h, 20 DAT, BROST
In short: as §1

Polygonum convolvulus [6] = experiment: greenhouse pre-emergence treatment, POLCO; settings: Fallopia convolvulus, 480 h, 20 DAT, POLCO
In short: as §1

[7] = metribuzin WG 70% solo 17.5 gai/ha
[8] = metribuzin WG 70% solo 35 gai/ha
[9] = metribuzin WG 70% solo 70 gai/ha
[10] = metribuzin WG 70% solo 140 gai/ha
[11] = metribuzin WG 70% solo 125 gai/ha, read-out: % activity
[12] = metribuzin WG 70% solo 62.5 gai/ha, read-out: % activity
[13] = metribuzin WG 70% solo 250 gai/ha, read-out: % activity

## CSc1nnc(C(C)(C)C)c(=O)n1N [metribuzin]
Echinocloa crus-galli; Echinochloa crus-galli, 480 h, metribuzin WG 70% solo 62.5 gai/ha
  inhibition at 62.5 g/ha: 30%
Echinocloa crus-galli; 31.25 gai/ha
  % activity: 0%
Echinocloa crus-galli; 62.5 gai/ha
  % activity: 30%
Helianthus annuus [1]
  inhibition at 35 g/ha: 70%
Apera spica-venti [2]; 31.25 gai/ha
  % activity: 30%
Apera spica-venti [2]; 62.5 gai/ha
  % activity: 50%
Lolium multiflorum; 17.5 gai/ha
  pest or weed control at 17.5 g/ha: 20%
Lolium multiflorum; 35 gai/ha
  pest or weed control at 35 g/ha: 60%
Lolium multiflorum; 70 gai/ha
  pest or weed control at 70 g/ha: 65%
Galium aparine; [7]
  inhibition at 17.5 g/ha: 0%
Galium aparine; [8]
  inhibition at 35 g/ha: 0%
Galium aparine; [9]
  inhibition at 70 g/ha: 0%
Galium aparine; [10]
  inhibition at 140 g/ha: 0%
Galium aparine; solo, WG 70%, 35 gai/ha
  pest or weed control at 35 g/ha: 0%
Galium aparine; solo, WG 70%, 70 gai/ha
  pest or weed control at 70 g/ha: 0%
Galium aparine; solo, WG 70%, 140 gai/ha
  pest or weed control at 140 g/ha: 0%
Polygonum convolvulus [3]; [7]
  inhibition at 17.5 g/ha: 0%
Polygonum convolvulus [3]; [8]
  inhibition at 35 g/ha: 0%
Polygonum convolvulus [3]; [9]
  inhibition at 70 g/ha: 60%
Polygonum convolvulus [3]; [10]
  inhibition at 140 g/ha: 70%
Avena fatua; [7]
  inhibition at 17.5 g/ha: 5%
Avena fatua; [8]
  inhibition at 35 g/ha: 10%
Avena fatua; [9]
  inhibition at 70 g/ha: 40%
Avena fatua; solo, WG 70%, 17.5 gai/ha
  pest or weed control at 17.5 g/ha: 5%
Avena fatua; solo, WG 70%, 35 gai/ha
  pest or weed control at 35 g/ha: 10%
Avena fatua; solo, WG 70%, 70 gai/ha
  pest or weed control at 70 g/ha: 40%
Apera spica-venti [4]; Apera spica-venti, 480 h, metribuzin WG 70% solo 17.5 gai/ha
  inhibition at 17.5 g/ha: 10%
Apera spica-venti [4]; Apera spica-venti, 480 h, metribuzin WG 70% solo 35 gai/ha
  inhibition at 35 g/ha: 55%
Apera spica-venti [4]; 17.5 gai/ha
  % activity: 10%
Apera spica-venti [4]; 35 gai/ha
  % activity: 55%
Apera spica-venti [4]; 70 gai/ha
  % activity: 90%
Papaver rhoeas; Papaver rhoeas, 480 h, metribuzin WG 70% solo 31.25 gai/ha
  inhibition at 31.25 g/ha: 80%
Papaver rhoeas; Papaver rhoeas, 480 h, metribuzin WG 70% solo 125 gai/ha
  inhibition at 125 g/ha: 98%
Papaver rhoeas; solo, WG 70%, 31.25 gai/ha
  % activity: 80%
Helianthus annuus [5]; metribuzin WG 70% solo 62.5 gai/ha
  inhibition at 62.5 g/ha: 0%
Helianthus annuus [5]; [11]
  inhibition at 125 g/ha: 0%
Helianthus annuus [5]; metribuzin WG 70% solo 250 gai/ha
  inhibition at 250 g/ha: 50%
Helianthus annuus [5]; solo, WG 70%, 31.25 gai/ha
  plant injury at 31.25 g/ha: 0%
Helianthus annuus [5]; solo, WG 70%, 62.5 gai/ha
  plant injury at 62.5 g/ha: 0%
Helianthus annuus [5]; solo, WG 70%, 250 gai/ha
  plant injury at 250 g/ha: 50%
Bromus sterilis; metribuzin WG 70% solo 31.25 gai/ha
  inhibition at 31.25 g/ha: 0%
Bromus sterilis; [12]
  inhibition at 62.5 g/ha: 10%
Bromus sterilis; [13]
  inhibition at 250 g/ha: 60%
Bromus sterilis; solo, WG 70%, 62.5 gai/ha
  pest or weed control at 62.5 g/ha: 10%
Polygonum convolvulus [6]; [12]
  inhibition at 62.5 g/ha: 0%
Polygonum convolvulus [6]; [11]
  inhibition at 125 g/ha: 0%
Polygonum convolvulus [6]; [13]
  inhibition at 250 g/ha: 0%
Polygonum convolvulus [6]; solo, WG 70%, 62.5 gai/ha
  pest or weed control at 62.5 g/ha: 0%
Polygonum convolvulus [6]; solo, WG 70%, 125 gai/ha
  pest or weed control at 125 g/ha: 0%
